From ChEMBL document CHEMBL1153106, “Thyroid receptor agonists for the treatment of androgenetic alopecia” (Bioorg Med Chem Lett, 2010) come the findings set out here.

Activity calls are given as the source filed them. The calls are words filed in the database; no cut-off is given here.

Series [1] concerns the target T1, Thyroid hormone receptor alpha (Homo sapiens, UniProt P10827).
T1 sequence (P10827 whole entry): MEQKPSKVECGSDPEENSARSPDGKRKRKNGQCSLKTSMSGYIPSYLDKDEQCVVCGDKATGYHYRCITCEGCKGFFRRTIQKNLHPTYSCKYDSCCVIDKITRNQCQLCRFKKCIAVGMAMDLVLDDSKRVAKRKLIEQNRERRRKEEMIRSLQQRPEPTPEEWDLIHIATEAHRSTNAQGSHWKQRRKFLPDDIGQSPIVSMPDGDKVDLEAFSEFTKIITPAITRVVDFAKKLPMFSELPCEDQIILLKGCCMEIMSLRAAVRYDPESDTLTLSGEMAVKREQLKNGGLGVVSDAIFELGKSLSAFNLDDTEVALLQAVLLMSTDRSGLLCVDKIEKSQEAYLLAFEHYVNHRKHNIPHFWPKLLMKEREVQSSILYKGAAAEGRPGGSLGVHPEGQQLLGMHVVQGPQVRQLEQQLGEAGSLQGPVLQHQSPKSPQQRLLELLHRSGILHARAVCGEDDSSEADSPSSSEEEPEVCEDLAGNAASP
As to the kind of experiment: Binding affinity to thyroid receptor alpha.

Series [2] deals with T2, Thyroid hormone receptor beta (Homo sapiens, UniProt P10828).
T2 sequence (P10828 whole entry): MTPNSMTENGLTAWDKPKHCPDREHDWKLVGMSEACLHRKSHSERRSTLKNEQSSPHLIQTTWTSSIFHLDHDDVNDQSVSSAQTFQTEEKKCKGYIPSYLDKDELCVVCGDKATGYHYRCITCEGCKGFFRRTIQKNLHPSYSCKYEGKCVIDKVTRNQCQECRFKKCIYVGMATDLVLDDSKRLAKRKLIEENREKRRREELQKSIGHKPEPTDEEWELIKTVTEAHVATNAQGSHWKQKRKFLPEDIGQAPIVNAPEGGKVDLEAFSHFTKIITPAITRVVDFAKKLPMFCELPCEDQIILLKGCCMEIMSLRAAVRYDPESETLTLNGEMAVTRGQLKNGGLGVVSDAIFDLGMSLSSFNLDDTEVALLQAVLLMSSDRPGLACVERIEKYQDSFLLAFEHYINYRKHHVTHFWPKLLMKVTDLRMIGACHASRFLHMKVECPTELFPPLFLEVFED
The series is described as follows: Binding affinity to thyroid receptor beta.

In series [3] the test system is Mus musculus. The series is described as follows: Hair growth stimulatory activity in C3H/HeN mouse treated 5 days a week topically to shaved lower back twice daily for 4 weeks. The series is classed as functional.
The species entered for a further series is Macaca arctoides. The series is described as follows: Hair growth stimulatory activity in bal stump-tailed monkey model. In kind it is functional.
Series [4] can be described thus: Drug level in bald stump-tailed monkey model after 2 months. In kind it is ADME, organism-based. The note with it: macaca arctoides, in vivo; read-out: Drug uptake.
A short description of series [5]: Terminal half life in rat at 0.5 mg/kg, iv. The series is classed as ADME, organism-based. The arrangement: dose 0.5 mg/kg, route intravenous. The settings on record: in vivo, read-out: beta t1/2 (converted).
Series [6] can be described thus: Metabolic stability in rat liver microsomes. In kind it is ADME, Microsome. A general note: Liver microsomes are vesicles of endoplasmic reticulum, rich in cytochrome P450 enzymes.
Series [7] has as its system Mus musculus. The series is described as follows: Ratio of drug to minoxidil MED for hair growth stimulatory activity in female C3H/HeN mouse at 1 mg/mL, treated topically to shaved lower back as single dose. In kind it is functional, organism-based.
The test system of series [8] is Mus musculus. As to the kind of experiment: Ratio of drug to minoxidil MED for hair growth stimulatory activity in female C3H/HeN mouse at 0.1 mg/mL, treated topically to shaved lower back as single dose. The series is classed as functional, organism-based.
Series [9] deals with Zone of skin. As to the kind of experiment: Effect on transepidermal penetration in human cadaver skin assessed as total penetration after 40 hrs using Franz diffusion chamber. The series is classed as functional.
Series [10] is described as follows: Intrinsic clearance in human. In kind it is ADME, organism-based. The note with it: not recorded.
Series [11] in a line: Half life in rat hepatocytes. The series is classed as ADME, cell-based, Liver, Hepatocyte.
For a further series, the target named is T3, Thyroid hormone receptor (Homo sapiens, UniProt P10827+P10828).
T3 sequence (P10827 whole entry): T1 sequence (P10827 whole entry)
T3 sequence (P10828 whole entry): T2 sequence (P10828 whole entry)
As to the kind of experiment: Binding affinity to thyroid hormone receptor in human HepG2 cells.

Series [12] relates to Zone of skin. As to the kind of experiment: Effect on transepidermal penetration in human cadaver skin assessed as drug distributed to epidermis after 40 hrs using Franz diffusion chamber. In kind it is functional.
Series [13] can be described thus: Toxicity in bald stump-tailed monkey skin after 4 months. The series is classed as tissue-based, Zone of skin. The settings on record: macaca arctoides, in vivo, 2922 h.
Another series deals with Rattus norvegicus. As to the kind of experiment: Apparent volume of distribution at steady state in rat at 0.5 mg/kg, iv. In kind it is ADME, organism-based. Further details: dose 0.5 mg/kg, route intravenous. The note with it: in vivo.
The nature of series [14]: Drug level in bald stump-tailed monkey model after 3 months. The series is classed as ADME, organism-based. The note with it: macaca arctoides, in vivo; read-out: Drug uptake.
Series [15] is described as follows: Intrinsic clearance in rat. The series is classed as ADME, organism-based. The settings on record: not recorded.
Series [16] is described as follows: Drug level in bald stump-tailed monkey model after 4 months. The series is classed as ADME, organism-based. The note with it: macaca arctoides, in vivo; read-out: Drug uptake.
The nature of series [17]: Plasma clearance in rat at 0.5 mg/kg, iv. Further details: dose 0.5 mg/kg, route intravenous. In kind it is ADME, organism-based.
Series [18] in a line: Clearance in human blood. The series is classed as ADME, organism-based.
The test system of series [19] is Zone of skin. As to the kind of experiment: Effect on transepidermal penetration in human cadaver skin assessed as drug distributed to dermis after 40 hrs using Franz diffusion chamber. The series is classed as functional.
Series [20] has as its system Zone of skin. As to the kind of experiment: Effect on transepidermal penetration in human cadaver skin assessed as maximal penetration rate after 28 hrs using Franz diffusion chamber. The series is classed as functional.
Series [21] can be described thus: Half life in human hepatocytes. In kind it is ADME, cell-based, Liver, Hepatocyte.
A short description of series [22]: Metabolic stability in […] human liver microsomes. The series is classed as ADME, Microsome.
The nature of series [23]: Clearance in rat blood. The series is classed as ADME, organism-based.
A further series deals with NIH3T3. As to the kind of experiment: Phototoxicity in mouse 3T3 cells by neutral red uptake assay. The series is classed as cell-based.

A word on the Ki: it is the equilibrium dissociation constant of an inhibitor or competing ligand from its target. With `O=C(c1cc(Oc2c(Cl)cc(-n3ncc(=O)[nH]c3=O)cc2Cl)ccc1O)N1CCCCC1`, the values for the inhibition constant Ki in series [1] and in [2] were 20 nM and 1 nM, respectively. In the series with Mus musculus [3], this molecule had an MED of 0.1%.
Take `Cc1cc(NC(=O)CC(=O)O)cc(Cl)c1Oc1ccc(O)c(S(=O)(=O)CC2CCC2)c1`: the inhibition constant Ki was found to be 2.1 nM in series [1] and 0.5 nM in series [2]. In the series with Mus musculus [3], this molecule showed an MED of 0.1%.
Turning to `O=c1cnn(-c2cc(Cl)c(Oc3ccc(O)c(Cc4ccc(F)cc4)c3)c(Cl)c2)c(=O)[nH]1`, the results for the inhibition constant Ki in [1] and in series [2] were 8 nM and 0.51 nM, respectively. Moreover, the MED in the series on Mus musculus [3] worked out at 0.01%.
Turning to `Nc1cc(N2CCCCC2)nc(N)[n+]1[O-]` [MINOXIDIL], the MED with Mus musculus [3] was determined as 2.5%; in the series filed under Macaca arctoides, 2%.
Take `Cc1cc(NC(=O)C(=O)O)cc(C)c1Oc1ccc(O)c2c1CCC2`: the inhibitory constant (Ki) in series [1] stood at 0.7 nM; in series [2], 0.5 nM. Moreover, the MED in the series on Mus musculus [3] was determined as 1%.
What is called CLint scaled is a measure of how fast metabolising enzymes remove a compound, apart from limits set by blood flow. As usually defined, the EC50 is the concentration at which the effect is half-maximal. One may read the clearance as a measure of how efficiently the substance is removed, as volume per time. With `Cc1cc(-n2ncc(=O)[nH]c2=O)cc(C)c1Oc1ccc(O)c(Cc2ccc(F)cc2)c1`, the concentration at 1461 h in [4] is below 2 ng/mL. Moreover, the results for the Ki in series [1] and in [2] were 3 nM and 0.4 nM, respectively. In addition, the half-life was 164 min in series [5]; 40 min in series [6]; 45 min in series [11]; 119 min in series [21]; 39 min in [22]. The outcome in the series on Mus musculus [7] and in the series with Mus musculus [8] was Active. In addition, the Activity in the series on Zone of skin [9] is on record as 6.17%; in the series with Zone of skin [12], 9.88%; in series [13] it was “Non-toxic”; in the series on Zone of skin [19], 0.58%; in the series on Zone of skin [20] it was 0.14 microg/cm2/h; with NIH3T3 it was “Non-toxic”. Besides, the CLint scaled in series [10] stood at 29 mL/min/kg; in [15], 149 mL/min/kg. The concentration for a half-maximal effect (EC50) at Thyroid hormone receptor came to 0.5 nM. Besides, the Vdss(app) in the series on Rattus norvegicus is 4.88 L/kg. Besides, the concentration at 2191.5 h in [14] was below 1 ng/mL. The concentration at 2922 h in series [16] was below 1 ng/mL. For the same molecule, the clearance in series [17] was 40 mL/min/kg; in series [18] it was 15 mL/min/kg; in [23] it was 51 mL/min/kg. For the same molecule, the figures for the MED with Mus musculus [3] and in the series filed under Macaca arctoides were 0.003% and 0.1%, respectively.
Regarding `O=C(c1cc(Oc2c(Cl)cc(-n3ncc(=O)[nH]c3=O)cc2Cl)ccc1O)N1CCc2ccccc2C1`, the inhibition constant (Ki) in series [1] came to 126 nM; in [2], 2 nM. The molecule further returned an MED with Mus musculus [3] of 0.1%.
